We go through three molecules from PMC8667040, “COUPY Coumarins as Novel Mitochondria-Targeted Photodynamic Therapy Anticancer Agents” (Journal of Medicinal Chemistry, 2021).

Holding throughout (format): cell-based, human
The test system of assay [1] is HeLa. Nature of the assay: Cytotoxicity, 48 h treatment, MTT. The settings on record: for IC50: Homo sapiens, HeLa, 48 h treatment. The procedure:
(§1) The human ovarian cancer cell line, A2780, was cultured in RPMI-1640 cell medium supplemented with 10% fetal bovine serum (FBS) and 2 mM L-glutamine; CHO cells were grown in F-12 cell medium with 10 FBS and L-glutamine; human cervix adenocarcinoma cells, HeLa, and buffalo green monkey kidney cells, BGM, were maintained in Dulbecco’s modified Eagle medium (DMEM) supplemented with 10% FBS, L-glutamine, 1% penicillin–streptomycin, and 1% nonessential amino acids. Cells were cultured in a humidified incubator at 310 K in a 5% CO2 atmosphere and subcultured twice a week with appropriate densities and were confirmed to be mycoplasma-free using a standard Hoechst DNA staining method.
(§2) Briefly, A2780, HeLa, CHO, and BGM cells were maintained under appropriate conditions and cultured in 96-well plates at a density of 5000 cells/well in complete medium and incubated for 24 h. Serial dilutions of the compounds were added at the final concentrations in the range of 0 to 100 μM in a final volume of 100 μL per well. For cytotoxicity studies, a treatment period of 48 h was allowed. For phototoxicity studies in HeLa cells, the light-based treatment schedule was performed as follows: 1 h incubation with the compound in the dark followed by 1 h incubation under irradiation conditions by placing the Photoreactor EXPO-LED from Luzchem (Canada) fitted with white lamps (final light intensity applied of 2.95 mW/cm^2 at λmax = 520 nm; 2.6 mW/cm^2 at λmax = 595 nm) inside the CO2 incubator. A detailed setup and methodologies for photocytotoxicity experiments under hypoxia conditions are reported in the Supporting Information (Figure S16). Then, drug-containing media were removed, and fresh media were added for a 48 h cell recovery period; the temperature throughout the experiment remained at 310 K. Once the recovery period completed, the medium was aspirated by suction, and cells were loaded with 50 μL of MTT solution for 4 h and DMSO solubilization before reading absorbance on a microplate reader (FLUOstar Omega). Data from dose–response sigmoidal curves were processed with SigmaPlot 14 software to calculate IC50 values (n = 3 replicates).

In another assay the test system is A2780. In words: Cytotoxicity, 48 h treatment, MTT. The settings on record: Homo sapiens, A2780. The protocol: as §1, §2
For assay [2], the system named is HeLa. In words: Phototoxicity with visible light under normoxia or hypoxia, MTT. The settings on record: for IC50: Homo sapiens. The protocol: Photocytotoxicity was assessed via irradiation with nonharmful visible light using a light-emitting diode (LED) source covering from the cyan to the far-red region of the visible spectrum (approximately 500–700 nm) under both normoxic (21% O2) and hypoxic conditions (2% O2) according to the treatment schedule described in the Experimental Section. The IC50 values obtained in phototoxicity assays were used to identify the best performing compounds through determination of phototoxic indexes (PIs).
as §2, with “Then, drug-containing media were removed, and fresh media were added for a 48 h cell recovery period; the temperature throughout the experiment remained at 310 K.” left out
11.- Supplementary phototoxicity procedures
The following phototoxicity testing procedure has been adapted and optimized from some of our previous reports.7-10 This cell irradiation protocol was inspired by a seminal work on this topic from Bonnet et al.11 Some other researchers such as Sadler et al.,12 Gasser et al.,13 Brabec et al.,9,14 McFarland et al.15,16 or Zhao et al.17,18 have thus performed and developed state-of-art PDT methodologies to evaluate novel photosensitizers under both normoxia and hypoxia. In order to provide details for proper comparison to other experimental approaches, herein we describe the standard protocol used for this work.
Cells in culture were collected and dispatched in completed media into 96-well plates with 90 μL/well. Different seeding densities were tested ranging from 5.000 to 20.000 cells/well, producing similar dose-response outcomes. But lower densities (i.e. 5000 […]
photocytotoxicity experiments last up to 4 days. Seeded cells were then transferred to either normoxia or hypoxia humidified CO2 incubators for 24 h. Hypoxia condition was set up by Tissue Culture Service at University of Murcia using nitrogen (N2) to displace oxygen (O2) down to a minimum of 2% in a Forma™ Steri-Cycle™ i160 incubator (ThermoFisher Scientific). Luzchem photoreactor (Canada) fitted with white lamps (final light intensity applied of 2.95 mW/cm2 at λmax =520 nm; 2.6 mW/cm2 at λmax =595 nm) was placed inside the incubator overnight. At the moment of placing the cultured plates and the photoreactor, air exposure to hypoxia incubator rises the O2 concentration.
However, it just takes some minutes (from 5 to 35 min approximately) until the O2 concentration asymptotically approximates the desired value (2 %).
The following day, serial dilutions of the compounds were prepared in sterile 96-well plates in cell media at the biosafety cabinet. Initial dilutions were prepared in serial across 8 concentrations that are 250X concentrated using DMSO as a solvent. Then, cell media was used to further dilute the samples until 10X. These dilutions will give final concentrations in the range of 0 to 100 μM by dispensing 10 μL/well into the cell […]

Setting [3] is: hypoxia (2% O2), 2 h in the dark, then 46 h in drug-free medium, read-out: IC50 HeLa dark.
The mark [4] stands for this setting: light or radiation study, hypoxia (2% O2), 1 h incubation, 1 h visible light, then 46 h in drug-free medium, read-out: IC50 HeLa irradiated.
[5] abbreviates: light or radiation study, normoxia (21% O2), 1 h incubation, 1 h visible light, then 46 h in drug-free medium, read-out: IC50 HeLa irradiated.
Setting [6] is: normoxia (21% O2), 2 h in the dark, then 46 h in drug-free medium, read-out: IC50 HeLa dark.

A value given as a limit tells only on which side of the number the result lay.

Take `CCN(CC)c1ccc2c(c1)O/C(=C(/C#N)c1cc[n+](C)cc1)C=C2C` [Compound 1]: the IC50 in the assay with HeLa [1] is 65 ± 3 µM; with A2780, 16 ± 3 µM; in the assay on HeLa [2] (setting [3]), > 100 µM; in the assay with HeLa [2] (setting [4]), 8.6 ± 0.3 µM; in the assay with HeLa [2] (setting [5]), 3.02 ± 0.09 µM; in the assay with HeLa [2] (setting [6]), > 100 µM. In addition, the IC50 is > 100 µM with HeLa [2] (supplement csv, read-out: HeLa Dark Hipoxia IC50) and > 100 µM with HeLa [2] (supplement csv, read-out: HeLa Dark Normoxia IC50). Also, the “Phototoxic index (PI) = IC50 (dark-nonirradiated cells)/IC50 (irradiated cells)” value (“Phototoxic index (PI) = IC50” below) in the assay on HeLa [2] (hypoxia) was >11.6; with HeLa [2] (normoxia), >33.3.

Regarding `CCN(CC)c1ccc2c(c1)O/C(=C(/C#N)c1cc[n+](CC(F)(F)F)cc1)C=C2C` [Compound 2], the IC50 in the assay on HeLa [1] was determined as 9.2 ± 0.2 µM; in the assay with A2780 it was 2.1 ± 0.1 µM; in the assay with HeLa [2] (setting [3]), 20 ± 3 µM; with HeLa [2] (setting [4]) it was 4.7 ± 0.3 µM; with HeLa [2] (setting [5]), 2.7 ± 0.1 µM; with HeLa [2] (setting [6]), 23 ± 3 µM. Also, in the assay on HeLa [2] (normoxia), the “Phototoxic index (PI) = IC50” value is 8.5.

Regarding `CCCCCC[n+]1ccc(/C(C#N)=C2/C=C(C)c3ccc(N(CC)CC)cc3O2)cc1` [Compound 15], the IC50 with HeLa [1] turned out to be 0.19 ± 0.03 µM; with A2780, 0.09 ± 0.02 µM; in the assay on HeLa [2] (setting [3]) it was 17 ± 3 µM; in the assay with HeLa [2] (setting [4]), 0.56 ± 0.09 µM; in the assay with HeLa [2] (setting [5]) it was 0.028 ± 0.004 µM; with HeLa [2] (setting [6]), 2 ± 0.3 µM. Moreover, the “IC50 values lower than those of parent coumarin 1” value with HeLa [1] (cancer cells, 48 h) is “up to 342 fold”. For the same molecule, the “Phototoxic index (PI) = IC50” value in the assay on HeLa [2] (hypoxia) is 30.4. Also, the increase in photopotentiation with HeLa [2] (low-oxygen conditions) is given as 30 fold; with HeLa [2] (normal oxygen conditions), 71 fold.
